Assay results as given in PubChem BioAssay (NCI).
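Cultured in 96-well plates, cells were exposed to test compound for 48 hours across five concentrations. TGI marks complete inhibition of growth.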

Columns and labels:
Assay in all cases: NCI tumour cell line growth inhibition, 48 h
HL-60(TB) leukemia = tested on: HL-60(TB) leukemia
OVCAR-4 ovarian = tested on: OVCAR-4 ovarian
MDA-N = tested on: MDA-N
OVCAR-5 ovarian = tested on: OVCAR-5 ovarian
IGROV1 ovarian = tested on: IGROV1 ovarian
CAKI-1 renal = tested on: CAKI-1 renal
EKVX NSCLC = tested on: EKVX NSCLC
SR leukemia = tested on: SR leukemia
RXF 393 renal = tested on: RXF 393 renal

SMILES | TGI (HL-60(TB) leukemia) | TGI (OVCAR-4 ovarian) | TGI (MDA-N) | TGI (OVCAR-5 ovarian) | TGI (IGROV1 ovarian) | TGI (CAKI-1 renal) | TGI (EKVX NSCLC) | TGI (SR leukemia) | TGI (RXF 393 renal)
CC(C)=NN/C(=N\S(=O)(=O)c1ccc(Oc2cccc(Cl)c2C#N)cc1)Nc1ccc(Cl)cc1 | > 100 µM | > 100 µM | > 100 µM | > 100 µM | > 100 µM | > 100 µM | > 100 µM | – | –
COc1cccc(CCN2CCN(CCCc3ccccc3)CC2)c1 | > 100 µM | > 100 µM | > 100 µM | > 100 µM | > 100 µM | > 100 µM | > 100 µM | > 100 µM | > 100 µM
NCCCN(CCCN(C(=O)Nc1ccccc1)c1ccccc1)C(=O)Nc1ccccc1 | 66.1 µM | – | > 100 µM | > 100 µM | > 100 µM | – | > 100 µM | > 100 µM | 86.2 µM
CSCCC(N)C(=O)NCCNc1ccc(NCCNC(=O)C(N)CCSC)c2c1C(=O)c1ccccc1C2=O (stereo not drawn) | 5.36 µM | 3.71 µM | 4.23 µM | 5.61 µM | 12.2 µM | 7.25 µM | 9.65 µM | 2.85 µM | 4.73 µM
CCCCC(=O)c1c(O)nc2sccn2c1=O | > 10 µM | > 10 µM | > 10 µM | > 10 µM | > 10 µM | > 10 µM | > 10 µM | > 10 µM | > 10 µM
CCCCOC(=O)C(NC(C(=O)OCCCC)c1cc(C(C)(C)C)c(O)c(C(C)(C)C)c1)c1cc(C(C)(C)C)c(O)c(C(C)(C)C)c1 (stereo not drawn) | > 100 µM | > 100 µM | > 100 µM | > 100 µM | > 100 µM | > 100 µM | > 100 µM | – | –
ClCCCc1ccccc1C1=NCCc2ccccc21 | > 100 µM | > 100 µM | – | > 100 µM | > 100 µM | > 100 µM | > 100 µM | – | > 100 µM
CC1(C)N/C(=C\C=O)C(C)(C)N1O | > 100 µM | > 100 µM | > 100 µM | > 100 µM | > 100 µM | > 100 µM | > 100 µM | > 100 µM | > 100 µM
CO/N=C1\CC(NC(=O)CNC(=O)OC(C)(C)C)c2ccsc21 (stereo not drawn) | > 100 µM | > 100 µM | > 100 µM | > 100 µM | > 100 µM | > 100 µM | > 100 µM | > 100 µM | > 100 µM
COC(OC)[C@@H]1OC[C@H](n2cnc3c(N)ncnc32)[C@H]1O | – | > 100 µM | > 100 µM | > 100 µM | > 100 µM | > 100 µM | > 100 µM | > 100 µM | > 100 µM
Cc1cc(-c2nc3cc(F)ccc3s2)ccc1NC(=O)[C@@H](N)CCCCN | 6.29 µM | 22 µM | 3.27 µM | 17 µM | 18.3 µM | 20.3 µM | 16.5 µM | 3.52 µM | 24.2 µM
OC1(c2ccccc2)CCN(Cc2c[nH]c3ccccc23)CC1 | > 100 µM | > 100 µM | > 100 µM | > 100 µM | > 100 µM | > 100 µM | > 100 µM | – | > 100 µM
Cc1ccc([S@](=O)c2occc2C=O)cc1 | 4.25 µM | > 53.2 µM | 15.1 µM | 34.7 µM | 31.2 µM | 30.7 µM | 43.6 µM | 5.08 µM | 26.3 µM
Cc1ccc(/C(O)=C/c2nc3ccccc3sc2=O)c(C)c1 | 69.6 µM | 70.8 µM | > 100 µM | > 100 µM | > 100 µM | > 100 µM | > 100 µM | 75.8 µM | 18.2 µM
CC1C(=O)N(c2ccccc2)NC12CCCc1ccccc12 (stereo not drawn) | > 100 µM | > 100 µM | > 100 µM | > 100 µM | > 100 µM | > 100 µM | > 100 µM | > 100 µM | > 100 µM
COc1ccc(C2=Nc3cc(C)c(C)cc3NC(c3ccccc3)C2)cc1 (stereo not drawn) | > 100 µM | > 100 µM | – | > 100 µM | > 100 µM | > 100 µM | > 100 µM | 54.5 µM | > 100 µM
CN(C)c1nc(N)nc(CS)n1 | 60.6 µM | > 100 µM | – | > 100 µM | > 100 µM | > 100 µM | > 100 µM | > 100 µM | > 100 µM
O=S(Nc1ccccc1)c1ccc(N2CCOCC2)cc1 (stereo not drawn) | > 100 µM | > 100 µM | – | – | > 100 µM | – | > 100 µM | > 100 µM | –
CSCSSC | – | > 100 µM | > 100 µM | > 100 µM | > 100 µM | > 100 µM | > 100 µM | > 100 µM | > 100 µM
C[n+]1cccc2c(=O)c3ccccc3oc21 | > 100 µM | > 100 µM | > 100 µM | > 100 µM | > 100 µM | > 100 µM | > 100 µM | > 100 µM | > 100 µM
COc1ccc(CC(N)c2ccc(OC)cc2)cc1 (stereo not drawn) | > 100 µM | > 100 µM | > 100 µM | > 100 µM | > 100 µM | > 100 µM | > 100 µM | – | > 100 µM
CCNC(=S)N=Nc1c(O)[nH]c2ccc([N+](=O)[O-])cc12 | > 100 µM | > 100 µM | > 100 µM | > 100 µM | > 100 µM | > 100 µM | > 100 µM | > 100 µM | 80.4 µM
CCOP(=O)(/C=C\n1cc(C)c(=O)[nH]c1=O)OCC | > 100 µM | > 100 µM | > 100 µM | > 100 µM | > 100 µM | > 100 µM | > 100 µM | – | > 100 µM
Cc1ccc(S(=O)(=O)n2c3ccc(Br)cc3c3nc4ccccc4nc32)cc1 | – | > 100 µM | > 100 µM | > 100 µM | 57.8 µM | > 100 µM | – | – | > 100 µM
CC(NC(=O)C(NC(=O)CNC(=O)OC(C)(C)C)C(C)C)C(=O)Oc1c(Cl)c(Cl)c(Cl)c(Cl)c1Cl (stereo not drawn) | > 100 µM | 60.9 µM | > 100 µM | 31.6 µM | 46.6 µM | 39.3 µM | 83.8 µM | > 100 µM | 44.6 µM
